Usually Kd stands for the constant that tells how readily two partners part at equilibrium. A low value points to a tighter complex. One may read the IC50 as the concentration that gives 50% inhibition.

Molecules are shown by their SMILES. Where a SMILES comes first, the peptide text is derived from it. Bridges are numbered along the chain shown (N, C = ends). [ ]: non-standard residue; d: D form. The star is where a group is joined. hPhe(3-Cl-4-CF3) = N[C@@H](CCc1ccc(C(F)(F)F)c(Cl)c1)C(=O)O; NPrPhe(4-CF3) = CCCN[C@@H](Cc1ccc(C(F)(F)F)cc1)C(=O)O; Morpholine(3S-CO) = O=C(O)[C@@H]1COCCN1; NMeGly(cPent) = CN[C@H](C(=O)O)C1CCCC1; Pro(4,4-F2) = O=C(O)[C@@H]1CC(F)(F)CN1; Hyp = O=C(O)[C@@H]1C[C@@H](O)CN1; NMeD = CN[C@@H](CC(=O)O)C(=O)O; NMeL = CN[C@@H](CC(C)C)C(=O)O; Morpholide = C1CN(*)CCO1; Ac5c = NC1(C(=O)O)CCCC1; Aze = O=C(O)[C@@H]1CCN1; Ac4c = NC1(C(=O)O)CCC1; Sar = CNCC(=O)O

Test [1] concerns the target GDP-bound NRAS wild-type protein (Homo sapiens, UniProt P01111). Briefly: Binding to NRAS by surface plasmon resonance (SPR), KD and KD ratio to KRAS. As to conditions: ratio of KD for GDP-bound NRAS wild-type protein to KD for KRAS. In outline: (§1)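 GDP-bound biotin-Avi RAS captured at ~100–300 RU, 30°C, pH 7.4 HBS containing 10 µM GDP, 10 mM MgCl2, 1 mM DTT, 0.01% Tween 20 and 4% DMSO. KD by 1:1 fitting.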
For orientation: Surface plasmon resonance follows binding to a sensor surface in real time, without labels.

Another test has as its target HRAS wild-type protein (Homo sapiens, UniProt P01112). Briefly: Binding to HRAS by surface plasmon resonance (SPR), KD and KD ratio to KRAS. As to conditions: ratio of KD for HRAS wild-type protein to KD for KRAS. A digest of the protocol:
as §1

Test [2] deals with GDP-bound KRAS wild-type protein (Homo sapiens, UniProt P01116). Briefly: Binding to KRAS by surface plasmon resonance (SPR), dissociation constant KD. As to conditions: 1:1 binding model. In outline:
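Running buffer contained 10 µM GDP and 10 mM MgCl2 to keep RAS in the GDP state, with 4% DMSO at pH 7.4. Compounds were flowed at 100 µL/min in 75 s steps of rising concentration over captured biotin-Avi RAS at 30°C. Sensorgrams were fitted 1:1 for KD.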

Test [3] concerns human lung cancer strain NCI-H441. In kind it is cell-based. In outline: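 Readout: […] after the ATP-based reagent. Compound: serial dilutions in dimethyl sulfoxide.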

GDP-bound NRAS wild-type protein, sequence (P01111 whole entry): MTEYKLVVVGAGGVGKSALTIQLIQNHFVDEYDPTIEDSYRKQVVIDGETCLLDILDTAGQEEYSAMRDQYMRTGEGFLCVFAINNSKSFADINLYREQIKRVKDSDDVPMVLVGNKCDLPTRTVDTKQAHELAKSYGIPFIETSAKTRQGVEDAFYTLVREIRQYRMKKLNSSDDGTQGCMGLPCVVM
HRAS wild-type protein, sequence (P01112 whole entry): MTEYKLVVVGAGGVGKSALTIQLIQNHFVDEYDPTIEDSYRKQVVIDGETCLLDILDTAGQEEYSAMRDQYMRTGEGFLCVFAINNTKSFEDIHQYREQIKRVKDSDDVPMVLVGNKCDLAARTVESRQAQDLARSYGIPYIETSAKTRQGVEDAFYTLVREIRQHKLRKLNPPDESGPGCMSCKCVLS
GDP-bound KRAS wild-type protein, sequence (P01116 1-188 isoform P01116-2): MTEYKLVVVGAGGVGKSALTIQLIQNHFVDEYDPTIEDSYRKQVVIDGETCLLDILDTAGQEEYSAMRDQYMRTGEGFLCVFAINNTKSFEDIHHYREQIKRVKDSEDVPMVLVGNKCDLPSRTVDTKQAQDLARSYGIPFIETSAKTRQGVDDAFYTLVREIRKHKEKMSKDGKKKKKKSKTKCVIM

With `CCCN1C(=O)CN(C)C(=O)[C@@H]2CCN2C(=O)[C@H]([C@@H](C)CC)NC(=O)[C@H](CC(C)C)N(C)C(=O)C[C@@H](C(=O)N2CCOCC2)N(C)C(=O)[C@H](C2CCCC2)N(C)C(=O)C2(CCCC2)NC(=O)[C@@H]2C[C@@H](OC)CN2C(=O)[C@H](CCc2ccc(C(F)(F)F)c(Cl)c2)NC(=O)CN(C)C(=O)[C@@H]1Cc1ccc(C(F)(F)F)cc1` [PP0309] ([NMeL]I[Aze][Sar][NPrPhe(4-CF3)][Sar][hPhe(3-Cl-4-CF3)][Hyp](Me)[Ac5c][NMeGly(cPent)][NMeD]-Morpholide; lactam N-11), the “NRAS /KRAS” value in test [1] is “B (a compound having 3 or more and less than 10 is denoted as B)”. In addition, the “HRAS /KRAS” value at HRAS wild-type protein was “B (a compound having 3 or more and less than 10 is denoted as B)”. In addition, the dissociation constant Kd in test [2] was found to be 0.29 nM. This molecule also registered a half-maximal inhibitory concentration (IC50) in test [3] of 11.7 nM.

For `CCCN1C(=O)CN(C)C(=O)[C@@H]2CCN2C(=O)[C@H]([C@@H](C)CC)NC(=O)[C@H](CC(C)C)N(C)C(=O)C[C@@H](C(=O)N2CCOCC2)N(C)C(=O)[C@H](C2CCCC2)N(C)C(=O)C2(CCCC2)NC(=O)[C@@H]2COCCN2C(=O)[C@H](CCc2ccc(C(F)(F)F)c(Cl)c2)NC(=O)CN(C)C(=O)[C@@H]1Cc1ccc(C(F)(F)F)cc1` [PP0313] ([NMeL]I[Aze][Sar][NPrPhe(4-CF3)][Sar][hPhe(3-Cl-4-CF3)][Morpholine(3S-CO)][Ac5c][NMeGly(cPent)][NMeD]-Morpholide; lactam N-11), in test [1], the “NRAS /KRAS” value is “B (a compound having 3 or more and less than 10 is denoted as B)”. For the same molecule, the “HRAS /KRAS” value at HRAS wild-type protein is “C (A compound having a KD ratio of 0.1 or more and less than 3 is denoted as C)”. The molecule also came in with a Kd in test [2] of 2.2 nM. Moreover, in test [3], the half-inhibitory concentration (IC50) amounted to 56.6 nM.

With `CC[C@H](C)[C@@H]1NC(=O)[C@H](CC(C)C)N(C)C(=O)C[C@@H](C(=O)N2CCOCC2)N(C)C(=O)[C@H](C2CCCC2)N(C)C(=O)C2(CCCC2)NC(=O)[C@@H]2CCCN2C(=O)[C@H](CCc2ccc(C(F)(F)F)c(Cl)c2)NC(=O)CN(C)C(=O)[C@H](Cc2ccc(C(F)(F)F)cc2)N2CCCCC[C@@H](C2=O)N(C)C(=O)CN(C)C1=O` [PP0319], in test [1], the “NRAS /KRAS” value was “B (a compound having 3 or more and less than 10 is denoted as B)”. The “HRAS /KRAS” value on HRAS wild-type protein was “B (a compound having 3 or more and less than 10 is denoted as B)”. Further, in test [2], the Kd is 1.8 nM. The same molecule showed a half-maximal inhibitory concentration (IC50) in test [3] of 23.5 nM.

As to `CCCN1C(=O)CN(C)C(=O)[C@@H]2CCN2C(=O)[C@H]([C@@H](C)CC)NC(=O)[C@H](CC(C)C)N(C)C(=O)C[C@@H](C(=O)N2CCOCC2)NC(=O)[C@H](C2CCCC2)N(C)C(=O)C2(CCC2)NC(=O)[C@@H]2CCCN2C(=O)[C@H](CCc2ccc(C(F)(F)F)c(Cl)c2)NC(=O)CN(C)C(=O)[C@@H]1Cc1ccc(C(F)(F)F)cc1` [PP0338] ([NMeL]I[Aze][Sar][NPrPhe(4-CF3)][Sar][hPhe(3-Cl-4-CF3)]P[Ac4c][NMeGly(cPent)]D-Morpholide; lactam N-11), the “NRAS /KRAS” value in test [1] was “B (a compound having 3 or more and less than 10 is denoted as B)”. Also, the “HRAS /KRAS” value at HRAS wild-type protein was “B (a compound having 3 or more and less than 10 is denoted as B)”. The same molecule had a Kd in test [2] of 3.6 nM. This molecule came in with an IC50 in test [3] of 296 nM.

For the molecule `CCCN1C(=O)CN(C)C(=O)[C@@H]2CCN2C(=O)[C@H]([C@@H](C)CC)NC(=O)[C@H](CC(C)C)N(C)C(=O)C[C@@H](C(=O)N2CCOCC2)NC(=O)[C@H](C2CCCC2)N(C)C(=O)C2(CCC2)NC(=O)[C@@H]2CC(F)(F)CN2C(=O)[C@H](CCc2ccc(C(F)(F)F)c(Cl)c2)NC(=O)CN(C)C(=O)[C@@H]1Cc1ccc(C(F)(F)F)cc1` [PP0340] ([NMeL]I[Aze][Sar][NPrPhe(4-CF3)][Sar][hPhe(3-Cl-4-CF3)][Pro(4,4-F2)][Ac4c][NMeGly(cPent)]D-Morpholide; lactam N-11), the “NRAS /KRAS” value in test [1] is “B (a compound having 3 or more and less than 10 is denoted as B)”. For the same molecule, at HRAS wild-type protein, the “HRAS /KRAS” value was “B (a compound having 3 or more and less than 10 is denoted as B)”. In test [2], this molecule came in with an equilibrium dissociation constant (Kd) of 3.7 nM. In test [3], this molecule showed a half-inhibitory concentration (IC50) of 177 nM.
